These results are taken from US20090075887A1, “Treatment with Kallikrein Inhibitors” (GENZYME CORPORATION, priority 2007, published 2009).

As usually defined, the Ki is a measure of affinity in units of concentration, obtained from inhibition or displacement.

The assay deals with plasma kallikrein (Homo sapiens, UniProt P03952). Briefly: Inhibition constant for plasma kallikrein. It counts as biochemical. The following applies: plasma kallikrein (PK); value used for the dose calculation.

Bridges are numbered along the chain shown (N, C = ends). Where no end group is shown, it is not given here.

Chain of plasma kallikrein (P03952 20-638): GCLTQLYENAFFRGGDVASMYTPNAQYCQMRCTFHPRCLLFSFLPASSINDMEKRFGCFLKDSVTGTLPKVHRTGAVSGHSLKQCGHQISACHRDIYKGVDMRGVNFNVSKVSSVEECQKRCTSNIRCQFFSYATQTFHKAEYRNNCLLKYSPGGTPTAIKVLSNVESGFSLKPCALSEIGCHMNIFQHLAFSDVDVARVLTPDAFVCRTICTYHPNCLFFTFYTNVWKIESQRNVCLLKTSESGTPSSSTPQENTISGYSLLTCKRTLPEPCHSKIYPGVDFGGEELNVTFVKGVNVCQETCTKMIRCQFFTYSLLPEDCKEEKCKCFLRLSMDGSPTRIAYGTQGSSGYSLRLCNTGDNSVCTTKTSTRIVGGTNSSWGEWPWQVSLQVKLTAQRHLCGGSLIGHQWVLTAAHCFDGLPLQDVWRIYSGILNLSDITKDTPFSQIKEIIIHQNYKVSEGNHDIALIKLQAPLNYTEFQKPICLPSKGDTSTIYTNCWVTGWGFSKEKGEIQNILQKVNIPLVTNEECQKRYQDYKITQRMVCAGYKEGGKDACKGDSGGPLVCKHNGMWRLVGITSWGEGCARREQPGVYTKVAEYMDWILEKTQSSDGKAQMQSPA

On to “EAMHSFCAFKADDGPCRAAHPRWFFNIFTRQCEEFIYGGCEGNQNRFESLEECKKMCTRD (disulfide 7-57, 16-40, 32-53) [DX88]”, for which the Ki is 44 pM.
